{
  "source": "patent US8673268B2",
  "about": "“Molecular targets and compounds, and methods to identify the same, useful in the treatment of joint degenerative and inflammatory diseases” (Galapagos N.V., priority 2004, dated 2014)",
  "key": {"[1]": {"system": "TIMP-2 secretion by SFs", "assay": "TIMP-2 secretion ELISA", "type": "cell-based, human", "description": "The secretion of TIMP-2 by SFs is determined to eliminate the factor of general suppression of SF secretory activity by the Ad-siRNAs as the cause of reduced expression of MMP1 in the reverse MMP1 assay. TIMP-2 is a protein that SFs express and secret constitutively. Secretion of TIMP-2 into the SF supernatant is blocked by the addition of BrefeldinA, a small molecule inhibitor of secretion. The level of SF TIMP-2 protein secretion is detected by ELISA. RASF cells are seeded in 96-well gelatin coated plates at 3000 cells/well in 100 μl synovial growth medium. After overnight incubation, cells are infected and incubated for 5 days at 37° C. in a 10% CO2 incubator. […] TIMP2 levels are determined by a standard ELISA assay, essentially as outlined for the MMP1 ELISA. […] After 5 minutes incubation at room temperature in the dark, luminescence is quantified on a luminometer (Luminoscan Ascent).\nThe procedure described above (plate layout, MOI, method for determination of the cutoff) applied for these experiments is identical to the one described for the toxicity measurements (i.e., a primary test with 12 μl infection volume and a retest with 3, 6, 12 μl infection volumes) differing only in that the cutoff applied in the primary test is determined as the average over all samples minus 2 times standard deviation over all samples. […]"}, "[2]": {"system": "MMP1 expression by synovial fibroblasts (SFs)", "assay": "reverse MMP1 assay: MMP1 ELISA on supernatant of SFs activated with TNFα-based trigger", "type": "cell-based", "settings": "Homo sapiens, Fibroblast, supernatant collected 48 hours after trigger, FIG. 5, read-out: IC50 for reduction of TNF-based trigger-induced MMP1 expression by SFs", "description": "A 384-well format ELISA for measurement of MMP1 is developed. Various primary antibodies are tested, as well as various ELISA protocols. The following protocol is developed and validated to measure MMP1 levels in SF supernatant in 384 well plates: white Lumitrac 600 384 well plates (Greiner) are coated with 2 μg/ml anti-MMP1 antibody MAB1346 (Chemicon). The antibody is diluted in buffer 40 (1.21 g Tris base (Sigma), 0.58 g NaCl (Calbiochem) and 5 ml 10% NaN3 (Sigma) in 1 L milliQ water and adjusted to pH 8.5). After overnight incubation at 4° C., plates are washed with PBS (80 g NaCl, 2 g KCl (Sigma), 11.5 g Na2HPO4.7H2O and 2 g KH2PO4 in 10 L milliQ; pH 7.4) and blocked with 100 μl/well Casein buffer (2% Casein (VWR International) in PBS). Next day, casein buffer is removed from ELISA plates and replaced by 50 μl/well EC buffer (4 g casein, 2.13 g Na2HPO4 (Sigma), 2 g bovine albumin (Sigma), 0.69 g NaH2PO4.H2O (Sigma), 0.5 g CHAPS (Roche), 23.3 g NaCl, 4 ml 0.5 M EDTA pH 8 (Invitrogen), 5 ml 10% NaN3 in 1 L milliQ and adjusted to pH 7.0). 0.25 mM DTT (Sigma) are added to the thawed samples plates. After removal of the EC buffer, 20 μl of sample are transferred to the ELISA plates. […] Readout is performed on the Luminoscan Ascent Luminometer (Labsystems) with an integration time of 200 msec or with an Envision reader (Perkin Elmer). […]"}, "[3]": {"system": "rheumatoid arthritis", "settings": "RA patients, after 24 months treatment; cited from earlier work"}},
  "note": "pIC50: −log10 of the molar value.",
  "data": [
    {"compound": "C[C@H]1CCC/C=C/[C@@H]2C[C@H](O)C[C@H]2[C@H](O)/C=C/C(=O)O1", "note": "[BrefeldinA]", "values": [
      {"measurement": "secretion of TIMP-2 into the SF supernatant", "setting": "[1]", "value": "blocked"}
    ]},
    {"compound": "C[C@@H]1C[C@H]2[C@@H]3CCC4=CC(=O)C=C[C@]4(C)[C@@]3(F)[C@@H](O)C[C@]2(C)[C@@]1(O)C(=O)CO", "note": "[dexamethasone]", "values": [
      {"measurement": "pIC50", "setting": "[2]", "value": "~9.00"}
    ]},
    {"compound": "CN(Cc1cnc2nc(N)nc(N)c2n1)c1ccc(C(=O)N[C@@H](CCC(=O)O)C(=O)O)cc1", "note": "[methotrexate]", "values": [
      {"measurement": "patients achieving an ACR50 score", "setting": "[3]", "value": 30, "unit": "%"}
    ]}
  ]
}
